Some test systems named below: 786-0; BT-549; DLD-1; DMS-114; EKVX; HCT-15; HOP-92; HT-29; IGROV-1; KM-20L2; KM12; MDA-MB-435; NCI-H522; SF-539; SK-OV-3; SNB-75; SW-620; T47D; UO-31; Hs-578T.
Holding throughout (experiment): DTP human tumour cell line panel, 48 h

Molecules are shown by their SMILES.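 Exposure lasted 48 hours, with cells grown in 96-well plates and compounds tested at five concentrations. Abbreviation: GI50, concentration required for 50% inhibition of growth.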 Calls of active or inactive are those of the source. Cut-off read from the data, not from the text of the source: active = GI50 up to about 1.1 µM and inactive = higher. Where only a bound is given, the exact number is not on record here.

Regarding `CCOC(=O)c1c(CN2CCNCC2)nc2ccc(Cl)cc2c1-c1ccccc1`, the GI50 in the test with 786-0 was 1.65 µM (inactive); in the test with BT-549 it was 13.1 µM (inactive); in the test on DLD-1, 2.98 µM (inactive); with DMS-114, 1.91 µM (inactive); in the test on EKVX, 9.38 µM (inactive); in the test with HCT-15 it was 3.91 µM. The GI50 was 1.17 µM (inactive) in the test with HOP-92; 1.79 µM (inactive) in the test with HT-29; 5 µM (inactive) in the test with IGROV-1; 2.64 µM (inactive) with KM-20L2; 3.44 µM (inactive) with KM12; 2.31 µM (inactive) in the test on MDA-MB-435. Also, the GI50 in the test on NCI-H522 is 4.38 µM (inactive); with SF-539, 2.56 µM (inactive); with SK-OV-3, 6.93 µM (inactive); in the test with SNB-75, 2.37 µM (inactive); in the test with SW-620, 2.03 µM (inactive); in the test with T47D, 4.82 µM (inactive). Also, the GI50 in the test with UO-31 was 3.32 µM (inactive).
`COc1ccc(/C=C/c2cc(OC)c(OC)c(OC)c2)cc1OC`: the GI50 in the test on 786-0 was > 76.9 µM (inactive); in the test on DLD-1, 81.5 µM (inactive); with DMS-114, > 100 µM (inactive); in the test on EKVX, > 100 µM (inactive); with HCT-15, over 56.2 µM; with HOP-92, 80.5 µM (inactive). For the same compound, the GI50 with HT-29 is > 72.8 µM (inactive); with IGROV-1, > 100 µM (inactive); in the test on KM-20L2, > 100 µM (inactive); in the test with KM12, > 100 µM (inactive); with NCI-H522, 68.5 µM (inactive); in the test with SF-539 it was > 86.1 µM (inactive). Moreover, the GI50 in the test on SK-OV-3 was > 100 µM (inactive); in the test on SNB-75, > 44.3 µM (inactive); with SW-620 it was > 100 µM (inactive); in the test on UO-31 it was > 92.7 µM (inactive).
Turning to `CCOC1=C2N=C(C(CC)c3ccc(F)cc3)N=C2C(=O)c2ccccc21` (stereo unspecified), the GI50 is 29.9 µM (inactive) with 786-0; 7.55 µM (inactive) with DLD-1; 22.4 µM (inactive) in the test on DMS-114; 26.9 µM (inactive) in the test with EKVX; 18.6 µM in the test on HCT-15; 17.7 µM (inactive) in the test on HOP-92. The GI50 with HT-29 was 19.2 µM (inactive); in the test on IGROV-1 it was 23.5 µM (inactive); with KM-20L2 it was 19 µM (inactive); in the test with KM12, 21.9 µM (inactive); in the test with NCI-H522, 22.3 µM (inactive); in the test on SF-539, 16.3 µM (inactive). The GI50 in the test on SK-OV-3 is 32.1 µM (inactive); with SNB-75, 21 µM (inactive); in the test with SW-620 it was 36.4 µM (inactive); in the test with UO-31, 13.2 µM (inactive).
`CC1=C2C(=O)[C@H]3[C@@H](CC=C4C[C@@H](O)CC[C@@]43C)[C@@H]2CC[C@]12O[C@@H]1C[C@H](C)CN[C@H]1[C@H]2C` [JERVINE]: the GI50 is > 41.9 µM (inactive) in the test on 786-0; > 100 µM (inactive) in the test on BT-549; 29.9 µM (inactive) with DLD-1; 18.9 µM (inactive) in the test on DMS-114; > 45.9 µM (inactive) in the test with EKVX; over 50.8 µM in the test with HCT-15. In addition, the GI50 is 11.9 µM (inactive) in the test on HOP-92; > 55.2 µM (inactive) in the test on HT-29; > 100 µM (inactive) with Hs-578T; > 54.7 µM (inactive) with IGROV-1; 28.9 µM (inactive) in the test on KM-20L2; > 50.4 µM (inactive) in the test on KM12. In addition, the GI50 was > 100 µM (inactive) in the test on MDA-MB-435; > 42.2 µM (inactive) in the test on NCI-H522; > 47.9 µM (inactive) in the test on SF-539; > 40.6 µM (inactive) with SK-OV-3; > 36.4 µM (inactive) in the test with SNB-75; > 49.4 µM (inactive) in the test with SW-620. Further, the GI50 with T47D was > 100 µM (inactive); with UO-31 it was > 40.1 µM (inactive).

As a reminder, the GI50 is the concentration that inhibits growth by half.

The record behind these values is ChEMBL document CHEMBL1201862, “PubChem BioAssay data set” (2004).
